ChEMBL document CHEMBL4507276 (2021)

What was measured:
[1] = target: Tyrosine-protein kinase JAK2 (Homo sapiens) (UniProt O60674); assay: JAK2 Invitrogen selectivity data (BI); details: Compound concentration 3.0 uM
[2] = target: Sodium-dependent serotonin transporter (Homo sapiens) (UniProt P31645); assay: 5HTTRANS/HU Eurofins-Panlabs selectivity data (BI); details: Compound concentration 10.0 uM
[3] = target: Tyrosine-protein kinase ABL1 (Homo sapiens) (UniProt P00519); assay: ABL1 Invitrogen selectivity data (BI); details: Compound concentration 3.0 uM
[4] = target: Serine/threonine-protein kinase 16 (Homo sapiens) (UniProt O75716); assay: STK16 Invitrogen selectivity data (BI); details: Compound concentration 3.0 uM
[5] = target: Mitogen-activated protein kinase kinase kinase kinase 5 (Homo sapiens) (UniProt Q9Y4K4); assay: MAP4K5 Invitrogen selectivity data (BI); details: Compound concentration 3.0 uM
[6] = target: Interstitial collagenase (Homo sapiens) (UniProt P03956); assay: MMP1 (H) Cerep selectivity data (BI); details: Compound concentration 20.0 uM
[7] = target: Beta-1 adrenergic receptor (Homo sapiens) (UniProt P08588); assay: BETA1/HU Eurofins-Panlabs selectivity data (BI); details: Compound concentration 10.0 uM
[8] = target: G protein-coupled receptor kinase 5 (Homo sapiens) (UniProt P34947); assay: GRK5 Invitrogen selectivity data (BI); details: Compound concentration 3.0 uM
[9] = target: Dual specificity tyrosine-phosphorylation-regulated kinase 1A (Homo sapiens) (UniProt Q13627); assay: DYRK1A Invitrogen selectivity data (BI); details: Compound concentration 3.0 uM
[10] = target: Substance-P receptor (Homo sapiens) (UniProt P25103); assay: NK1/HU Eurofins-Panlabs selectivity data (BI); details: Compound concentration 10.0 uM
[11] = target: Tyrosine-protein kinase Blk (Homo sapiens) (UniProt P51451); assay: BLK Invitrogen selectivity data (BI); details: Compound concentration 3.0 uM
[12] = target: Calcium/calmodulin-dependent protein kinase type 1 (Homo sapiens) (UniProt Q14012); assay: CAMK1_A Invitrogen selectivity data (BI); details: Compound concentration 3.0 uM
[13] = target: T1, G protein-coupled receptor kinase 3 (Homo sapiens) (UniProt P35626); assay: ADRBK2 Invitrogen selectivity data (BI); details: Compound concentration 3.0 uM
T1 sequence (whole entry): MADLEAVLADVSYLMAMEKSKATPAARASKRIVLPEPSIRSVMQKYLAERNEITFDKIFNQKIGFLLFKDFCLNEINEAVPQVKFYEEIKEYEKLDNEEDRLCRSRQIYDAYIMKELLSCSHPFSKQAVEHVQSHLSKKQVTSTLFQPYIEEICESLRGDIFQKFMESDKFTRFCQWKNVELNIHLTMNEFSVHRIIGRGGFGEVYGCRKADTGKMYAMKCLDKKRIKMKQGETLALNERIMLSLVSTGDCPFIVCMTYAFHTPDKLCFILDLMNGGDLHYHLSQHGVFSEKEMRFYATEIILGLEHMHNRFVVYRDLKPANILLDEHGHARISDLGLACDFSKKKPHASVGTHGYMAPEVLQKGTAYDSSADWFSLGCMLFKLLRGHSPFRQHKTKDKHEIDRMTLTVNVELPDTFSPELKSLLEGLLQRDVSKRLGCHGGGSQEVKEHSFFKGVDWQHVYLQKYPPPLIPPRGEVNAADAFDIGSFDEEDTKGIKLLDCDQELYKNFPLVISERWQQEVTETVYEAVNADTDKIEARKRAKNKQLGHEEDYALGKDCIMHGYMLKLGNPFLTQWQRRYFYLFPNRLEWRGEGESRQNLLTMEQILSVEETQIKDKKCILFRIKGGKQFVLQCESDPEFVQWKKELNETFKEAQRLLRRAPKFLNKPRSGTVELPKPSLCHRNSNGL

[14] = system: Tyrosine-protein kinase ABL1 (Homo sapiens), P00519 [G250E]; assay: ABL1 G250E Invitrogen selectivity data (BI); details: Compound concentration 3.0 uM
[15] = target: Melatonin receptor type 1A (Homo sapiens) (UniProt P48039); assay: MT1/H Eurofins-Panlabs selectivity data (BI); details: Compound concentration 10.0 uM
[16] = system: Platelet-derived growth factor receptor alpha (Homo sapiens), P16234 [T674I]; assay: PDGFRA T674I Invitrogen selectivity data (BI); details: Compound concentration 3.0 uM
[17] = target: T2, Ephrin type-A receptor 1 (Homo sapiens) (UniProt P21709); assay: EPHA1 Invitrogen selectivity data (BI); details: Compound concentration 3.0 uM
T2 sequence (whole entry): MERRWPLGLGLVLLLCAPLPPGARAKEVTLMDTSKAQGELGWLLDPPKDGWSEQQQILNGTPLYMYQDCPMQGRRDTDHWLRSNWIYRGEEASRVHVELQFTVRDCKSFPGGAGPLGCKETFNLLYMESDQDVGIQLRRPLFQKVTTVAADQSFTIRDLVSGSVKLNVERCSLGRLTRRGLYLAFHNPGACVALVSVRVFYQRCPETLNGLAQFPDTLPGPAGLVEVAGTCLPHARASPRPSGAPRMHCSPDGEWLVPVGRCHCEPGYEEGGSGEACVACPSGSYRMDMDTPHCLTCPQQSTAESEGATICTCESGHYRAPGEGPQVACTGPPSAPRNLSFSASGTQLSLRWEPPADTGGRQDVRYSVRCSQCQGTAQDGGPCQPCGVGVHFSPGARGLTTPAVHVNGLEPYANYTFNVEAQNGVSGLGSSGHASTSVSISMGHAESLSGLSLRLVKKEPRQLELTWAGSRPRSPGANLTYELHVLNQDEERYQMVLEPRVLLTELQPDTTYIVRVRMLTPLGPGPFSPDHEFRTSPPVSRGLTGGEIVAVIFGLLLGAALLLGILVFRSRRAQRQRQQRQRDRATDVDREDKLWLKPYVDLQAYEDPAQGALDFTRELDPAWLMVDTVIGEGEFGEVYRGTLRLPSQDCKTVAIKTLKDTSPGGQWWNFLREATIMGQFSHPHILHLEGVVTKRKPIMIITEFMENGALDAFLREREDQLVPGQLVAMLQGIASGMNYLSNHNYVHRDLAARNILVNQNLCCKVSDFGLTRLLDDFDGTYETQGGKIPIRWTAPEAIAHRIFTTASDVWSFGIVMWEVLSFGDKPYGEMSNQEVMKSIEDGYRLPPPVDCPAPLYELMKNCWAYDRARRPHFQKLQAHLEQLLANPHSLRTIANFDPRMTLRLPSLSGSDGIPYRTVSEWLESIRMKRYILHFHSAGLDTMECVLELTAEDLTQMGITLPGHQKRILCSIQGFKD

[18] = target: Serine/threonine-protein kinase PAK 1 (Homo sapiens) (UniProt Q13153); assay: PAK1 Invitrogen selectivity data (BI); details: Compound concentration 3.0 uM
[19] = target: Protein kinase C beta type (Homo sapiens) (UniProt P05771); assay: PRKCB1 Invitrogen selectivity data (BI); details: Compound concentration 3.0 uM
[20] = target: Histamine H1 receptor (Homo sapiens) (UniProt P35367); assay: H1/PYRIL/HS Cerep selectivity data (BI); details: Compound concentration 20.0 uM
[21] = target: Serine/threonine-protein kinase PAK 2 (Homo sapiens) (UniProt Q13177); assay: PAK2 Invitrogen selectivity data (BI); details: Compound concentration 3.0 uM
[22] = target: Small conductance calcium-activated potassium channel protein 1 (Rattus norvegicus) (UniProt P70606); assay: K+/CA+/R Cerep selectivity data (BI); details: Compound concentration 20.0 uM
[23] = target: Vascular endothelial growth factor receptor 1 (Homo sapiens) (UniProt P17948); assay: FLT-1(VEGFR1)_CE Cerep selectivity data (BI); details: Compound concentration 20.0 uM
[24] = target: RAC-beta serine/threonine-protein kinase (Homo sapiens) (UniProt P31751); assay: AKT2 Invitrogen selectivity data (BI); details: Compound concentration 3.0 uM
Sequence of RAC-beta serine/threonine-protein kinase (Homo sapiens) (P31751 whole entry): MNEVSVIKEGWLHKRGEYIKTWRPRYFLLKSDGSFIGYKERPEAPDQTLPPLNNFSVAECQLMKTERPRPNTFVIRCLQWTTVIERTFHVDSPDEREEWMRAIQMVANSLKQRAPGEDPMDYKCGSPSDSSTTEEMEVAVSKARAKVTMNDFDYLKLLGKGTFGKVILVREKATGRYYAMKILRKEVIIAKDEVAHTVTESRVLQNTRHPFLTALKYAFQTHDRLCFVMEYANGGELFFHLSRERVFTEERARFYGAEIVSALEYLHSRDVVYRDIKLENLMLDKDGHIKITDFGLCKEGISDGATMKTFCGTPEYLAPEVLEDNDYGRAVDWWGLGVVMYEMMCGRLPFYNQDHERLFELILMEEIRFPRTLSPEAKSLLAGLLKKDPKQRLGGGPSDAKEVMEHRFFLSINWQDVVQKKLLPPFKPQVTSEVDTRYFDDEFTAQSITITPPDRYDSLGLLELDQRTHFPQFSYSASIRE

Sequence of Protein kinase C beta type (Homo sapiens) (P05771 2-671 limits assumed): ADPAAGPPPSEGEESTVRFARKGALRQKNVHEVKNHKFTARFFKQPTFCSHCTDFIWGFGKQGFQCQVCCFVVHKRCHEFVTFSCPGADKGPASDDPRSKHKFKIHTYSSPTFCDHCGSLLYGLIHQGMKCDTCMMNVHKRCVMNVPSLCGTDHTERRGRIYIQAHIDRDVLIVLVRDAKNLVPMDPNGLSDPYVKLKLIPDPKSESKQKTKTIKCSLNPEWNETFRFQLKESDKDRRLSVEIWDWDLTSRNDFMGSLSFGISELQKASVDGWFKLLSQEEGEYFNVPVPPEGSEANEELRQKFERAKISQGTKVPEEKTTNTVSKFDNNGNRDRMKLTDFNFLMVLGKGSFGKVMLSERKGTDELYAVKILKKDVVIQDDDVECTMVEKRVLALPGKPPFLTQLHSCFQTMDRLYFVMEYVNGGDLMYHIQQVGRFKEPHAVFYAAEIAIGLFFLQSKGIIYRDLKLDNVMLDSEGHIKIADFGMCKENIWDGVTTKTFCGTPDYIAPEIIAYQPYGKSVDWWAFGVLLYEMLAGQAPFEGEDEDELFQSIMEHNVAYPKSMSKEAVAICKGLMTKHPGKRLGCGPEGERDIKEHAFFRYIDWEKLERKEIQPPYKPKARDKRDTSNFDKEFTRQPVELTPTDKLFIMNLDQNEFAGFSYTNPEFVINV
Sequence of Tyrosine-protein kinase Blk (Homo sapiens) (P51451 2-505 limits assumed): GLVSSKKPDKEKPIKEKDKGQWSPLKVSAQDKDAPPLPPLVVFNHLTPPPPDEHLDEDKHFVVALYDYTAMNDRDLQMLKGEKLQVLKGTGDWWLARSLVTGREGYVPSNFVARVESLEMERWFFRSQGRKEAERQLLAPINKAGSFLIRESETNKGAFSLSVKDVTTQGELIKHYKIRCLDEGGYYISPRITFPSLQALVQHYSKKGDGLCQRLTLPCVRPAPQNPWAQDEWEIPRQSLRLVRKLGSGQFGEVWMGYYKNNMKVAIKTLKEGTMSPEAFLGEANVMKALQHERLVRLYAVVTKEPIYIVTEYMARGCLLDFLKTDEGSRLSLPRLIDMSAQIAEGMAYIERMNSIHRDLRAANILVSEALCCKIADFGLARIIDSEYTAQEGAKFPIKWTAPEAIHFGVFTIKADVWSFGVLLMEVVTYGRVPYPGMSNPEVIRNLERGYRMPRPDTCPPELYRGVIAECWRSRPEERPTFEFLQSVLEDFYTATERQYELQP
Sequence of Melatonin receptor type 1A (Homo sapiens) (P48039 whole entry): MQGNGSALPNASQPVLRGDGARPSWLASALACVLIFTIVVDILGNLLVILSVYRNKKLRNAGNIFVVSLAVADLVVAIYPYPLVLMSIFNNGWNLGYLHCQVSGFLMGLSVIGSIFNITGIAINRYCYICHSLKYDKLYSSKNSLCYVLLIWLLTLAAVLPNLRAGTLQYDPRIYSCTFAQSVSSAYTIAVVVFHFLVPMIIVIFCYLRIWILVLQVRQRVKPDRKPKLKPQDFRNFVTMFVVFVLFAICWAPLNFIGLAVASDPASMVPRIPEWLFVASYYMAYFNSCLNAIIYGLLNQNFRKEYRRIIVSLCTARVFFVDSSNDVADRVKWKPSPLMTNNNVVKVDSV
Sequence of Histamine H1 receptor (Homo sapiens) (P35367 whole entry): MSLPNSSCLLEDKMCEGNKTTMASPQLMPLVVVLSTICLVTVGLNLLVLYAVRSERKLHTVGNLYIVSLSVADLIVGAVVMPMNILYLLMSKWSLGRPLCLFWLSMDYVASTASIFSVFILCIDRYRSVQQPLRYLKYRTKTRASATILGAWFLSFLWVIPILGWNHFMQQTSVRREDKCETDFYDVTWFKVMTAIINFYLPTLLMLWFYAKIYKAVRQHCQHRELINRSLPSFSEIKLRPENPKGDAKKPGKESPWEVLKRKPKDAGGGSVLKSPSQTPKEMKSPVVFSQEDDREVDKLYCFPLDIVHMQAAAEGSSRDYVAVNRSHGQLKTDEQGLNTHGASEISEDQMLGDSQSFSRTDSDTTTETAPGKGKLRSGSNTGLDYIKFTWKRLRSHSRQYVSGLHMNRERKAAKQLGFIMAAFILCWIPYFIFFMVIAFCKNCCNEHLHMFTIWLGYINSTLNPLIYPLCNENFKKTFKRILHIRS
Sequence of Serine/threonine-protein kinase PAK 2 (Homo sapiens) (Q13177 whole entry): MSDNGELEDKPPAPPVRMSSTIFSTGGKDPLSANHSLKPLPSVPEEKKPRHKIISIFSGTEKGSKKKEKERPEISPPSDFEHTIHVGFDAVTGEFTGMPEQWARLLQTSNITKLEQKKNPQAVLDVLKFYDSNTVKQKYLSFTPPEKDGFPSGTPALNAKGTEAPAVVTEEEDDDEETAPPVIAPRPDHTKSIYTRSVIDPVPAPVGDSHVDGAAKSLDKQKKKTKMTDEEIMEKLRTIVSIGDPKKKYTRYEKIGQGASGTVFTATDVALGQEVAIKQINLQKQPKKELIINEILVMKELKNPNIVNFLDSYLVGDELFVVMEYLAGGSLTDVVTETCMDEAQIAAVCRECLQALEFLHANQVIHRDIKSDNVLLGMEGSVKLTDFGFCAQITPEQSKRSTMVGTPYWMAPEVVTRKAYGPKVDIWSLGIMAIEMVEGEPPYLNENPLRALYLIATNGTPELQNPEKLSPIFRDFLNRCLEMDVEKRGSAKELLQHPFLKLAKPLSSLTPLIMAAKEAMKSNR
Sequence of Small conductance calcium-activated potassium channel protein 1 (Rattus norvegicus) (P70606 whole entry): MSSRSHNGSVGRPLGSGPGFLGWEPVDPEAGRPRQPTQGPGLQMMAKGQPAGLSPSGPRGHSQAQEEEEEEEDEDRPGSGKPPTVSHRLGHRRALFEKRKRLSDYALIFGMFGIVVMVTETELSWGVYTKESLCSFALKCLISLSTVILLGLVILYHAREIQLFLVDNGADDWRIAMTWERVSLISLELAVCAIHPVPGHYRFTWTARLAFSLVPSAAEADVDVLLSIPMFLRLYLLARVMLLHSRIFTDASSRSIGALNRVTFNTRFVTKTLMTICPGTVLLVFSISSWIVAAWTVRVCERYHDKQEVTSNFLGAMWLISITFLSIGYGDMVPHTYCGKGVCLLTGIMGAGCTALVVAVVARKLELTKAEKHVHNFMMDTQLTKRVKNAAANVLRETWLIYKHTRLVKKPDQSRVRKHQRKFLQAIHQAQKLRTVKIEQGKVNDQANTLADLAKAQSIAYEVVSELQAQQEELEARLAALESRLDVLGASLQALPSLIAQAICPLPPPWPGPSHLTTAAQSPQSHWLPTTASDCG
Sequence of Vascular endothelial growth factor receptor 1 (Homo sapiens) (P17948 whole entry): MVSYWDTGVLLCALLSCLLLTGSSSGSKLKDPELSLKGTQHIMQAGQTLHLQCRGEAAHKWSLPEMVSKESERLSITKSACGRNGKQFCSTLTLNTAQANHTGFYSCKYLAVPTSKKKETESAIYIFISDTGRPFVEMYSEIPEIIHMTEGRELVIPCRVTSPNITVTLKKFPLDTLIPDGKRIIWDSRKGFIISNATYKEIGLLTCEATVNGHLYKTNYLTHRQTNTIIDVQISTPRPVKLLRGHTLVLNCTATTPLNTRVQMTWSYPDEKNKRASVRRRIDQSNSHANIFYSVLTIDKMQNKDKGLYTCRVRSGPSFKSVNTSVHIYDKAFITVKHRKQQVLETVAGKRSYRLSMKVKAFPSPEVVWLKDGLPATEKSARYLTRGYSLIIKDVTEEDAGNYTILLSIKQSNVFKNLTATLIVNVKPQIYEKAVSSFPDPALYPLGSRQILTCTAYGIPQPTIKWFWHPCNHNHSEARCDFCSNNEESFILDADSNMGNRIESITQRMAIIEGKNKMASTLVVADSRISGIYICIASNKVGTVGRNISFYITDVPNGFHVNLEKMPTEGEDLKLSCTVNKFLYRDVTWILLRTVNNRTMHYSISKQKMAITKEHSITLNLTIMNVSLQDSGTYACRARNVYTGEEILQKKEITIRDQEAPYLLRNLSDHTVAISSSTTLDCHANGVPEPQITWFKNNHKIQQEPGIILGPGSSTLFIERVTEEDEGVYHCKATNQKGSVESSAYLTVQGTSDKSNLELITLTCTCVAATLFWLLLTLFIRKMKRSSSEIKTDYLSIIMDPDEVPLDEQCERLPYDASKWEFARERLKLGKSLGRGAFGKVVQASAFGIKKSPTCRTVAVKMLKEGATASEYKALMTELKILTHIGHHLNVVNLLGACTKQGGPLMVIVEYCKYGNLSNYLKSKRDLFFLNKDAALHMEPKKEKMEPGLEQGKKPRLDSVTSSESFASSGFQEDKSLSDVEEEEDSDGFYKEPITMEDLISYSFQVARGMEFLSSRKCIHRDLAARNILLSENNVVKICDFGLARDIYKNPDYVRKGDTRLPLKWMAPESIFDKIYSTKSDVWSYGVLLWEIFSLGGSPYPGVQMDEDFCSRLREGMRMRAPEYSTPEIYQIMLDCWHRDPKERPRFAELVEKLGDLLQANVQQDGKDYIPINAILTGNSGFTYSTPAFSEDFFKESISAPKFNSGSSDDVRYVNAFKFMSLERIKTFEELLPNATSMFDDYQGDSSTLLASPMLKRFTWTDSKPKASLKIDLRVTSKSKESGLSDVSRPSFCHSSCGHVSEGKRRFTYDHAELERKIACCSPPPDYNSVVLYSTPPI

For `CN(C)C(=O)Cn1cc(-c2nc([C@@](C)(c3ccc(-c4cnc(N)nc4)cc3)C3CC3)no2)cn1` [BI 665915], the residual activity [1] was 91%, the residual activity [2] was 106% and the residual activity [3] was 84%. For the same compound, the residual activity [4] was 98%, the residual activity [5] was 93% and the residual activity [6] was 97%. It also gave a residual activity [7] of 103%, a residual activity [8] of 100% and a residual activity [9] of 100%. The residual activity [10] was 104%, the residual activity [11] was 88.5% and the residual activity [12] was 102%. For the same compound, the residual activity [13] was 100%, the residual activity [14] was 80% and the residual activity [15] was 96%. It also gave a residual activity [16] of 87%, a residual activity [17] of 89% and a residual activity [18] of 96%. For the same compound, the residual activity [19] was 98.5%, the residual activity [20] was 89% and the residual activity [21] was 100%. The residual activity [22] was 88%, the residual activity [23] was 36% and the residual activity [24] was 98%.
